Source: patent US12121521B2, “Uses of salt-inducible kinase (SIK) inhibitors for treating osteoporosis” (The General Hospital Corporation, priority 2016, dated 2024)

How the values were obtained:
Assay in all cases: ScanEDGE kinase panel (DiscoverX)
Format in all cases: binding
ACVR1B = molecular target: T1, ACVR1B (Homo sapiens, UniProt P36896); conditions: read-out: % of control activity at 71 nM
T1 construct: T7 phage fusion (most kinases) or DNA tag for qPCR (HEK-293-made kinases); purchased DiscoverX (Fremont, CA); host or cells: E. coli BL21-derived host (T7 phage) or HEK-293
Protocol: (§1) ScanEDGE kinase assays paneling specificity across a panel of 96 representative kinases were performed by DiscoverX (Fremont, CA). For most assays, kinase-tagged T7 phage strains were grown in parallel in 24-well blocks in an E. coli host derived from the BL21 strain. Bacteria were grown to log phase and infected with T7 phage from frozen stock (MOI=0.4) and incubated with shaking at 32° C. until lysis (90-150 minutes). The lysates were centrifuged (6000×g) and filtered (0.2 μm) to remove cell debris. The remaining kinases were produced in HEK-293 cells and subsequently tagged with DNA for qPCR detection. […] The liganded beads were blocked with excess biotin and washing with blocking buffer (SeaBlock (Pierce), 1% BSA, 0.05% Tween 20, 1 mM DTT) to remove unbound ligand and to reduce non-specific phage binding. […] Test compounds were prepared as 40× stocks in 100% DMSO and directly diluted into the assay. All reactions were performed in polypropylene 384 well plates in a final volume of 40 μl. […] The kinase concentration in the eluates was measured by qPCR.

ADCK3 = molecular target: T2, ADCK3 (Homo sapiens, UniProt Q8NI60); conditions: read-out: % of control activity at 71 nM
T2 construct: T7 phage fusion (most kinases) or DNA tag for qPCR (HEK-293-made kinases); purchased DiscoverX (Fremont, CA); host or cells: E. coli BL21-derived host (T7 phage) or HEK-293
Protocol: as §1

AURKA = molecular target: T3, AURKA (Homo sapiens, UniProt O14965); conditions: read-out: % of control activity at 71 nM
T3 construct: T7 phage fusion (most kinases) or DNA tag for qPCR (HEK-293-made kinases); purchased DiscoverX (Fremont, CA); host or cells: E. coli BL21-derived host (T7 phage) or HEK-293
Protocol: as §1

BRAF = molecular target: T4, BRAF (Homo sapiens, UniProt P15056); conditions: read-out: % of control activity at 71 nM
T4 construct: T7 phage fusion (most kinases) or DNA tag for qPCR (HEK-293-made kinases); purchased DiscoverX (Fremont, CA); host or cells: E. coli BL21-derived host (T7 phage) or HEK-293
Protocol: as §1

BRSK1 = molecular target: T5, BRSK1 (Homo sapiens, UniProt Q8TDC3); conditions: read-out: % of control activity at 71 nM
T5 construct: T7 phage fusion (most kinases) or DNA tag for qPCR (HEK-293-made kinases); purchased DiscoverX (Fremont, CA); host or cells: E. coli BL21-derived host (T7 phage) or HEK-293
Protocol: as §1

CDK2 = molecular target: T6, CDK2 (Homo sapiens, UniProt P24941); conditions: read-out: % of control activity at 71 nM
T6 construct: T7 phage fusion (most kinases) or DNA tag for qPCR (HEK-293-made kinases); purchased DiscoverX (Fremont, CA); host or cells: E. coli BL21-derived host (T7 phage) or HEK-293
Protocol: as §1

CSNK1D = molecular target: T7, CSNK1D (Homo sapiens, UniProt P48730); conditions: read-out: % of control activity at 71 nM
T7 construct: T7 phage fusion (most kinases) or DNA tag for qPCR (HEK-293-made kinases); purchased DiscoverX (Fremont, CA); host or cells: E. coli BL21-derived host (T7 phage) or HEK-293
Protocol: as §1

DYRK1B = molecular target: T8, DYRK1B (Homo sapiens, UniProt Q9Y463); conditions: read-out: % of control activity at 71 nM
T8 construct: T7 phage fusion (most kinases) or DNA tag for qPCR (HEK-293-made kinases); purchased DiscoverX (Fremont, CA); host or cells: E. coli BL21-derived host (T7 phage) or HEK-293
Protocol: as §1

ERBB4 = molecular target: T9, ERBB4 (Homo sapiens, UniProt Q15303); conditions: read-out: % of control activity at 71 nM
T9 construct: T7 phage fusion (most kinases) or DNA tag for qPCR (HEK-293-made kinases); purchased DiscoverX; host or cells: E. coli BL21-derived host (T7 phage) or HEK-293
T9 sequence (Q15303 26-1308): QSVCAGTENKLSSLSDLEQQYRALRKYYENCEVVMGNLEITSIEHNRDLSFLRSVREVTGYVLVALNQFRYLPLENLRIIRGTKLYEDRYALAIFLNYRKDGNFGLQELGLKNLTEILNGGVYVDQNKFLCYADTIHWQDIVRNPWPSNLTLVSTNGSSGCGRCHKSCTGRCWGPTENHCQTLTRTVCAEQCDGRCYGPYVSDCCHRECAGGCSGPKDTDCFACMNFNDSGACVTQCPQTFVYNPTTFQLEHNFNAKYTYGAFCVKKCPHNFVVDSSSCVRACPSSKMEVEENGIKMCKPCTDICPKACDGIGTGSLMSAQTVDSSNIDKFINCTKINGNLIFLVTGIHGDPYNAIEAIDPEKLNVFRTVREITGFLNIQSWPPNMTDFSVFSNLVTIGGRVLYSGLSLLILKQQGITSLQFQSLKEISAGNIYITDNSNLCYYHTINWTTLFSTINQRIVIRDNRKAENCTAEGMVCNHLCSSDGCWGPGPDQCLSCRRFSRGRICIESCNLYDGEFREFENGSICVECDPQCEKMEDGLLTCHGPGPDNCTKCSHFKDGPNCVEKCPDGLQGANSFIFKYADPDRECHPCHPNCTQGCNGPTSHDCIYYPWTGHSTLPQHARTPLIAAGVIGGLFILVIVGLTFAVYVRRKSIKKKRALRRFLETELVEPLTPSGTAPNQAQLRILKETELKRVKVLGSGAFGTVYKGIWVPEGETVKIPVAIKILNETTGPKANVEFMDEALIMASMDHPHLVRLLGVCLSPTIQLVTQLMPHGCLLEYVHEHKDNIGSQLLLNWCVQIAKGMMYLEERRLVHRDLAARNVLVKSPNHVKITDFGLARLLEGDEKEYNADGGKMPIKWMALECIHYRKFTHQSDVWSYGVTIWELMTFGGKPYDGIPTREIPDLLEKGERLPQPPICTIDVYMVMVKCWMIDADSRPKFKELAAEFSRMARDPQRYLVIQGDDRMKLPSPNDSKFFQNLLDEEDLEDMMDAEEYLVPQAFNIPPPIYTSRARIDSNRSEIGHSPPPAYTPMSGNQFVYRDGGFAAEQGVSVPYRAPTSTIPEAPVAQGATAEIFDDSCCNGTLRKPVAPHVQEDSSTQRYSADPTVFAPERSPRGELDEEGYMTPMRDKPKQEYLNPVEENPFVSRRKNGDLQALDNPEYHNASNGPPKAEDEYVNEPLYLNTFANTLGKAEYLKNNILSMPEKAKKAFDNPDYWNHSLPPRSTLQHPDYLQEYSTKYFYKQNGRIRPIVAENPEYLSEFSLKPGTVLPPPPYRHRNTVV
Protocol: as §1

FAK = molecular target: T10, FAK (Homo sapiens, UniProt Q05397); conditions: read-out: % of control activity at 71 nM
T10 construct: T7 phage fusion (most kinases) or DNA tag for qPCR (HEK-293-made kinases); purchased DiscoverX; host or cells: E. coli BL21-derived host (T7 phage) or HEK-293
T10 sequence (Q05397 whole entry, the tested form may be a part): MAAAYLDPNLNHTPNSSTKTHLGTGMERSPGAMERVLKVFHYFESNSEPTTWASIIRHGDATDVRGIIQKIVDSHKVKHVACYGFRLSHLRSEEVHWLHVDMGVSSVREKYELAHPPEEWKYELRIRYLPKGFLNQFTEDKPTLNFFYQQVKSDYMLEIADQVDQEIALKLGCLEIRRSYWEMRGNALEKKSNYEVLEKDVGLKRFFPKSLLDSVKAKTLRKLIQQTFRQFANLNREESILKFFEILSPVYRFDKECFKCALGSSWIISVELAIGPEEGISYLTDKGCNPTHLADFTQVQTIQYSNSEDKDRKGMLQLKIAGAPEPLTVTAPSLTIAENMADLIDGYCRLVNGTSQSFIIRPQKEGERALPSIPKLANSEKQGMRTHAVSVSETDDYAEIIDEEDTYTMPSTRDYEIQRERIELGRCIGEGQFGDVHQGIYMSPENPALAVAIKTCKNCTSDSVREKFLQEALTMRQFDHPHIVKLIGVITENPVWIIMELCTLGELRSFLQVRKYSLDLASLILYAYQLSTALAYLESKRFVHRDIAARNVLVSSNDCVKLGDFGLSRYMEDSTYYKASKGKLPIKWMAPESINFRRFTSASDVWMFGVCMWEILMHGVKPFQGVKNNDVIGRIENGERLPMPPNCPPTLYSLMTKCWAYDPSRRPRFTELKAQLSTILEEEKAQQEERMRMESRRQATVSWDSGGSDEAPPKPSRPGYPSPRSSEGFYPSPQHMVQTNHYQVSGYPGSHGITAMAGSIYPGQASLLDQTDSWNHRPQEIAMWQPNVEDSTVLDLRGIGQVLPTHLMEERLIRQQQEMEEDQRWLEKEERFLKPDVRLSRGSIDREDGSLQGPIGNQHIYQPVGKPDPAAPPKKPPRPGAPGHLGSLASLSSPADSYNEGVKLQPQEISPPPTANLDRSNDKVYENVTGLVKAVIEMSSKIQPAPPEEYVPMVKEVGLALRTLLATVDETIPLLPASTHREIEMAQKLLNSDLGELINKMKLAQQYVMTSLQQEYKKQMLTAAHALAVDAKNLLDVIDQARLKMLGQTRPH
Protocol: as §1

FGFR2 = molecular target: T11, FGFR2 (Homo sapiens, UniProt P21802); conditions: read-out: % of control activity at 71 nM
T11 construct: T7 phage fusion (most kinases) or DNA tag for qPCR (HEK-293-made kinases); purchased DiscoverX; host or cells: E. coli BL21-derived host (T7 phage) or HEK-293
Protocol: as §1

IKK-beta = molecular target: T12, IKK-beta (Homo sapiens, UniProt O14920); conditions: read-out: % of control activity at 71 nM
T12 construct: T7 phage fusion (most kinases) or DNA tag for qPCR (HEK-293-made kinases); purchased DiscoverX; host or cells: E. coli BL21-derived host (T7 phage) or HEK-293
Protocol: as §1

INSR = molecular target: T13, INSR (Homo sapiens, UniProt P06213); conditions: read-out: % of control activity at 71 nM
T13 construct: T7 phage fusion (most kinases) or DNA tag for qPCR (HEK-293-made kinases); purchased DiscoverX; host or cells: E. coli BL21-derived host (T7 phage) or HEK-293
Protocol: as §1

MAPKAPK2 = molecular target: T14, MAPKAPK2 (Homo sapiens, UniProt P49137); conditions: read-out: % of control activity at 71 nM
T14 construct: T7 phage fusion (most kinases) or DNA tag for qPCR (HEK-293-made kinases); purchased DiscoverX; host or cells: E. coli BL21-derived host (T7 phage) or HEK-293
Protocol: as §1

MET = molecular target: T15, MET (Homo sapiens, UniProt P08581); conditions: read-out: % of control activity at 71 nM
T15 construct: T7 phage fusion (most kinases) or DNA tag for qPCR (kinases made in HEK-293); purchased DiscoverX; host or cells: E. coli BL21-derived host (T7 phage) or HEK-293
Protocol: as §1

PAK4 = molecular target: T16, PAK4 (Homo sapiens, UniProt O96013); conditions: read-out: % of control activity at 71 nM
T16 construct: T7 phage fusion (most kinases) or DNA tag for qPCR (kinases made in HEK-293); purchased DiscoverX; host or cells: E. coli BL21-derived host (T7 phage) or HEK-293
Protocol: as §1

PCTK1 = molecular target: T17, PCTK1 (Homo sapiens, UniProt Q00536); conditions: read-out: % of control activity at 71 nM
T17 construct: T7 phage fusion (most kinases) or DNA tag for qPCR (kinases made in HEK-293); purchased DiscoverX; host or cells: E. coli BL21-derived host (T7 phage) or HEK-293
T17 sequence (Q00536 whole entry, the tested form may be a part): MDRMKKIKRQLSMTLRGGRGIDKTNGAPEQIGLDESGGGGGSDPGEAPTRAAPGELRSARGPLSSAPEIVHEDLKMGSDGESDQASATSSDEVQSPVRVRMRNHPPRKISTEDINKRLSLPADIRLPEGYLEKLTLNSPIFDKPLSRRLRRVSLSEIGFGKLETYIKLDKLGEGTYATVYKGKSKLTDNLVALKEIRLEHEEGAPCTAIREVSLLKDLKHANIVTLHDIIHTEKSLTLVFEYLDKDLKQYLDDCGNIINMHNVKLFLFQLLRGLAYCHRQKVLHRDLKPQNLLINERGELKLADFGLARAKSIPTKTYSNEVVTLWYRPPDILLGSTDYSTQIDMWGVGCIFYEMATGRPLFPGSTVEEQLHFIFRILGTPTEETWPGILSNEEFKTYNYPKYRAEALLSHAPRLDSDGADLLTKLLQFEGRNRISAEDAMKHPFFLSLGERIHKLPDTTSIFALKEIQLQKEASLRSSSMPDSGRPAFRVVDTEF
Protocol: as §1

PDGFRA = molecular target: T18, PDGFRA (Homo sapiens, UniProt P16234); conditions: read-out: % of control activity at 71 nM
T18 construct: T7 phage fusion (most kinases) or DNA tag for qPCR (kinases made in HEK-293); purchased DiscoverX; host or cells: E. coli BL21-derived host (T7 phage) or HEK-293
Protocol: as §1

PDPK1 = molecular target: T19, PDPK1 (Homo sapiens, UniProt O15530); conditions: read-out: % of control activity at 71 nM
T19 construct: T7 phage fusion (most kinases) or DNA tag for qPCR (kinases made in HEK-293); purchased DiscoverX; host or cells: E. coli BL21-derived host (T7 phage) or HEK-293
Protocol: as §1

PIM1 = molecular target: T20, PIM1 (Homo sapiens, UniProt P11309); conditions: read-out: % of control activity at 71 nM
T20 construct: T7 phage fusion (most kinases) or DNA tag for qPCR (kinases made in HEK-293); purchased DiscoverX; host or cells: E. coli BL21-derived host (T7 phage) or HEK-293
Protocol: as §1

PIM2 = molecular target: T21, PIM2 (Homo sapiens, UniProt Q9P1W9); conditions: read-out: % of control activity at 71 nM
T21 construct: T7 phage fusion (most kinases) or DNA tag for qPCR (kinases made in HEK-293); purchased DiscoverX; host or cells: E. coli BL21-derived host (T7 phage) or HEK-293
T21 sequence (Q9P1W9 whole entry, the tested form may be a part): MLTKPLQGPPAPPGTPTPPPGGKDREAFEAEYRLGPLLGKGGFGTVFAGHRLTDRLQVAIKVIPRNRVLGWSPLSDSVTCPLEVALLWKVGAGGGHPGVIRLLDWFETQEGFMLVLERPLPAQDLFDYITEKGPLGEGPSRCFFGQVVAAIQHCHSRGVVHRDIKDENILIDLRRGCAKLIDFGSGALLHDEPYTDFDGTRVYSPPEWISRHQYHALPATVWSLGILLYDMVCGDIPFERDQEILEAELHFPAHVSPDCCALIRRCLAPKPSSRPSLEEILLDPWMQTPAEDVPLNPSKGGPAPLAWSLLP
Protocol: as §1

PIM3 = molecular target: T22, PIM3 (Homo sapiens, UniProt Q86V86); conditions: read-out: % of control activity at 71 nM
T22 construct: T7 phage fusion (most kinases) or DNA tag for qPCR (kinases made in HEK-293); purchased DiscoverX; host or cells: E. coli BL21-derived host (T7 phage) or HEK-293
Protocol: as §1

PKAC-alpha = molecular target: T23, PKAC-alpha (Homo sapiens, UniProt P17612); conditions: read-out: % of control activity at 71 nM
T23 construct: T7 phage fusion (most kinases) or DNA tag for qPCR (kinases made in HEK-293); purchased DiscoverX; host or cells: E. coli BL21-derived host (T7 phage) or HEK-293
Protocol: as §1

PLK3 = molecular target: T24, PLK3 (Homo sapiens, UniProt Q9H4B4); conditions: read-out: % of control activity at 71 nM
T24 construct: T7 phage fusion (most kinases) or DNA tag for qPCR (kinases made in HEK-293); purchased DiscoverX; host or cells: E. coli BL21-derived host (T7 phage) or HEK-293
Protocol: as §1

RSK2 = molecular target: T25, RSK2 (Homo sapiens, UniProt P51812); conditions: read-out: % of control activity at 71 nM
T25 construct: T7 phage fusion (most kinases) or DNA tag after HEK-293 expression; purchased DiscoverX (Fremont, CA), ScanEDGE; host or cells: T7 phage in E. coli BL21-derived host, or HEK-293
T25 sequence (P51812 39-397 limits assumed): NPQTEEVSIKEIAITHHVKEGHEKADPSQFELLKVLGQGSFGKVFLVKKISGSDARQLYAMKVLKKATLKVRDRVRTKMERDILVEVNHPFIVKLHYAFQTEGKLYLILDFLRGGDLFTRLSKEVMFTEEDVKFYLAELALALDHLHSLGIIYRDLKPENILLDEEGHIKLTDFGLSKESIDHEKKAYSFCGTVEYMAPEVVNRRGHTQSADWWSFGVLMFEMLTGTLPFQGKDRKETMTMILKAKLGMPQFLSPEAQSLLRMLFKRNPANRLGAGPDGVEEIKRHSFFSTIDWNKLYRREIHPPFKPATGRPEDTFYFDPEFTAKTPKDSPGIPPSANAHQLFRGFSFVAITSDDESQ
Protocol: as §1

SIK (SIK1) = molecular target: T26, SIK (SIK1) (Homo sapiens, UniProt P57059); conditions: SIK refers to SIK1, read-out: % of control activity at 71 nM
T26 construct: T7 phage fusion (most kinases) or DNA tag after HEK-293 expression; purchased DiscoverX (Fremont, CA), ScanEDGE; host or cells: T7 phage in E. coli BL21-derived host, or HEK-293
Protocol: as §1

SNARK = molecular target: T27, SNARK (Homo sapiens, UniProt Q9H093); conditions: read-out: % of control activity at 71 nM
T27 construct: T7 phage fusion (most kinases) or DNA tag after HEK-293 expression; purchased DiscoverX (Fremont, CA), ScanEDGE; host or cells: T7 phage in E. coli BL21-derived host, or HEK-293
Protocol: as §1

SRC = molecular target: T28, SRC (Homo sapiens, UniProt P12931); conditions: read-out: % of control activity at 71 nM
T28 construct: T7 phage fusion (most kinases) or DNA tag after HEK-293 expression; purchased DiscoverX (Fremont, CA), ScanEDGE; host or cells: T7 phage in E. coli BL21-derived host, or HEK-293
Protocol: as §1

TIE2 = molecular target: T29, TIE2 (Homo sapiens, UniProt Q02763); conditions: read-out: % of control activity at 71 nM
T29 construct: T7 phage fusion (most kinases) or DNA tag after HEK-293 expression; purchased DiscoverX (Fremont, CA), ScanEDGE; host or cells: T7 phage in E. coli BL21-derived host, or HEK-293
Protocol: as §1

VEGFR2 = molecular target: T30, VEGFR2 (Homo sapiens, UniProt P35968); conditions: read-out: % of control activity at 71 nM
T30 construct: T7 phage fusion (most kinases) or DNA tag after HEK-293 expression; purchased DiscoverX (Fremont, CA), ScanEDGE; host or cells: T7 phage in E. coli BL21-derived host, or HEK-293
T30 sequence (P35968 20-1356): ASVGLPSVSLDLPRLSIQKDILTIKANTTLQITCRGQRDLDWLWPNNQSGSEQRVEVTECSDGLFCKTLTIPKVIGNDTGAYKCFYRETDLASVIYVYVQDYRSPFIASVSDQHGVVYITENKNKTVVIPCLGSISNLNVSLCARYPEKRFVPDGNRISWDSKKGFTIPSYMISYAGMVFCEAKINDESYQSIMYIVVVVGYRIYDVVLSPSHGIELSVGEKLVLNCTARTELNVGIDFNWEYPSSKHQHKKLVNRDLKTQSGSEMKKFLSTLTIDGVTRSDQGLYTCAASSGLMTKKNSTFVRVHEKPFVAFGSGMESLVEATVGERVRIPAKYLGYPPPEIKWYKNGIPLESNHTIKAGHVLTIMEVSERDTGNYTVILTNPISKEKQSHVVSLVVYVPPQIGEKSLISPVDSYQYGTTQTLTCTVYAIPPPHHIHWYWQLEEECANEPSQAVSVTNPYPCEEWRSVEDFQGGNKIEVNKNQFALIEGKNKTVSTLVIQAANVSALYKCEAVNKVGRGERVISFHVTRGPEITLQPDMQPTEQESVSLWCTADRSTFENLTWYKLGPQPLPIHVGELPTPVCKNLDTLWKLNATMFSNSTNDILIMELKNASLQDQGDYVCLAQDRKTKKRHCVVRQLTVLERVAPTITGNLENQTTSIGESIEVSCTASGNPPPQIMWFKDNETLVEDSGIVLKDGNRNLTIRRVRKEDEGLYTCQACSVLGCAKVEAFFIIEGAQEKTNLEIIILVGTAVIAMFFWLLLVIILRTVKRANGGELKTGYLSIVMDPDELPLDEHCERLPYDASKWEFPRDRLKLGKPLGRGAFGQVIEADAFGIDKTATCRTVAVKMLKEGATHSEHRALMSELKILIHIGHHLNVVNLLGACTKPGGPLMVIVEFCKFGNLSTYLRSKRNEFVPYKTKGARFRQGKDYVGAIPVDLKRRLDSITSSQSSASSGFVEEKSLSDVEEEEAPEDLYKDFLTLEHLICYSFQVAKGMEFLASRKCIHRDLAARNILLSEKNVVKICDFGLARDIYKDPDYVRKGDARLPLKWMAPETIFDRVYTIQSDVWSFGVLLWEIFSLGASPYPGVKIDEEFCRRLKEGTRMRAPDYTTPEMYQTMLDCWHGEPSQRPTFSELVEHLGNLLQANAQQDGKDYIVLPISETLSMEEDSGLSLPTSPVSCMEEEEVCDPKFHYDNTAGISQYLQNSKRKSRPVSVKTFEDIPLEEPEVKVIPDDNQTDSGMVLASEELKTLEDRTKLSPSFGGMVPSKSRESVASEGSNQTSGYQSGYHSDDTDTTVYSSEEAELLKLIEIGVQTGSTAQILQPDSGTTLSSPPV
Protocol: as §1

YANK3 = molecular target: T31, YANK3 (Homo sapiens, UniProt Q86UX6); conditions: read-out: % of control activity at 71 nM
T31 construct: T7 phage fusion (most kinases) or DNA tag after HEK-293 expression; purchased DiscoverX (Fremont, CA), ScanEDGE; host or cells: T7 phage in E. coli BL21-derived host, or HEK-293
Protocol: as §1

ZAP70 = molecular target: T32, ZAP70 (Homo sapiens, UniProt P43403); conditions: read-out: % of control activity at 71 nM
T32 construct: T7 phage fusion (most kinases) or DNA tag after HEK-293 expression; purchased DiscoverX (Fremont, CA), ScanEDGE; host or cells: T7 phage in E. coli BL21-derived host, or HEK-293
Protocol: as §1

remaining binding at 0.071 µM (ACVR1B): 50%
remaining binding at 0.071 µM (ADCK3): 93%
remaining binding at 0.071 µM (AURKA): 12%
remaining binding at 0.071 µM (BRAF): 66%
remaining binding at 0.071 µM (BRSK1): 74%
remaining binding at 0.071 µM (CDK2): 99%
remaining binding at 0.071 µM (CSNK1D): 98%
remaining binding at 0.071 µM (DYRK1B): 93%
remaining binding at 0.071 µM (ERBB4): 6.1%
remaining binding at 0.071 µM (FAK): 90%
remaining binding at 0.071 µM (FGFR2): 8.9%
remaining binding at 0.071 µM (IKK-beta): 84%
remaining binding at 0.071 µM (INSR): 56%
remaining binding at 0.071 µM (MAPKAPK2): 85%
remaining binding at 0.071 µM (MET): 92%
remaining binding at 0.071 µM (PAK4): 88%
remaining binding at 0.071 µM (PCTK1): 91%
remaining binding at 0.071 µM (PDGFRA): 11%
remaining binding at 0.071 µM (PDPK1): 55%
remaining binding at 0.071 µM (PIM1): 89%
remaining binding at 0.071 µM (PIM2): 97%
remaining binding at 0.071 µM (PIM3): 84%
remaining binding at 0.071 µM (PKAC-alpha): 100%
remaining binding at 0.071 µM (PLK3): 90%
remaining binding at 0.071 µM (RSK2): 51%
remaining binding at 0.071 µM (SIK (SIK1)): 0.6%
remaining binding at 0.071 µM (SNARK): 6%
remaining binding at 0.071 µM (SRC): 0%
remaining binding at 0.071 µM (TIE2): 32%
remaining binding at 0.071 µM (VEGFR2): 26%
remaining binding at 0.071 µM (YANK3): 95%
remaining binding at 0.071 µM (ZAP70): 52%
SMILES: COc1ccc(N2C(=O)N(c3c(C)cccc3C)Cc3cnc(Nc4ccc(C5CCN(C)CC5)c(OC)c4)nc32)c(OC)c1 [YKL-05-093]
